The subject of one data set is BXPC-3. The data set can be described thus: Synergistic antiproliferative activity against human BXPC-3 cells expressing wild-type BRCA assessed as inhibition of cell viability incubated for 5 days in presence of JQ1 by CCK8 assay. It counts as functional, cell-based. As to conditions: time 5.0 day.
The subject of data set [1] is PANC-1. The data set can be described thus: Induction of apoptosis in human PANC-1 cells at 2 uM incubated for 48 hrs in presence of JQ1 by Annexin V-FITC/PI staining based flow cytometry relative to compound treatment alone. It counts as functional. (In flow cytometry, cells or beads pass a laser one at a time.)
In data set [2] the test system is PANC-1. Briefly: Induction of apoptosis in human PANC-1 cells assessed as decrease in Bcl-2 level at 2 uM incubated for 48 hrs in presence of JQ1 by Western blot analysis. It counts as functional, cell-based. A general note: Immunoblotting shows a protein as a band on a membrane.
The target of data set [3] is Protein cereblon/Poly [ADP-ribose] polymerase 1 (Homo sapiens, UniProt P09874+Q96SW2). The data set can be described thus: PROTAC activity at CRBN/PARP1 in human BXPC-3 cells assessed as induction of PARP1 degradation at 2 uM incubated for 24 hrs by immunofluorescence based analysis. It is filed as cell-based.
Protein cereblon/Poly [ADP-ribose] polymerase 1, sequence (P09874 2-1014 limits assumed): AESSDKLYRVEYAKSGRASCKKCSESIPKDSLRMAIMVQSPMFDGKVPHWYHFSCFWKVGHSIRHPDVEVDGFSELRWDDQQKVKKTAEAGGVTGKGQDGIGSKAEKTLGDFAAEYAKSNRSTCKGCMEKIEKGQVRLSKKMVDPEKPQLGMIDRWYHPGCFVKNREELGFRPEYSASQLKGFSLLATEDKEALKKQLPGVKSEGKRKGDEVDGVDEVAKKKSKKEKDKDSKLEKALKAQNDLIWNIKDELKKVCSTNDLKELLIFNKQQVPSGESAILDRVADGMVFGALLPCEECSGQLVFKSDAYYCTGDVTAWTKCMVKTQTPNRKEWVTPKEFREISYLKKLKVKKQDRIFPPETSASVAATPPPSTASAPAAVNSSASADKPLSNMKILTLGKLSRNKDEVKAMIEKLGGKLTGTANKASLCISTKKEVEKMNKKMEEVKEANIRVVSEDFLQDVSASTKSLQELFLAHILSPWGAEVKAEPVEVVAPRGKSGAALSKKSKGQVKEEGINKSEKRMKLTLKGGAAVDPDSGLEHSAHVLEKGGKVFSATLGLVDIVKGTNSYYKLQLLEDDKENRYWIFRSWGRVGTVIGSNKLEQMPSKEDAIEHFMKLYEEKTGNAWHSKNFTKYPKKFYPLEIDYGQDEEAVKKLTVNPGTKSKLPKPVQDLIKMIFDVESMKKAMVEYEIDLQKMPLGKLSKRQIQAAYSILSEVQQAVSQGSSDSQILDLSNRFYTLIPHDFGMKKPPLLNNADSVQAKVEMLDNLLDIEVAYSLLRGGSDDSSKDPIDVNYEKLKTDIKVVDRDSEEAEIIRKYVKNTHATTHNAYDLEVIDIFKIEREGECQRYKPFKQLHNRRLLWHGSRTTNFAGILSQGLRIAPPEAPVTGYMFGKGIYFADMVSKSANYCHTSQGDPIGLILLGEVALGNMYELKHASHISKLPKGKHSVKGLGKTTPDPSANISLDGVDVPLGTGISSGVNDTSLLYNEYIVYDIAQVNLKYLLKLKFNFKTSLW
Protein cereblon/Poly [ADP-ribose] polymerase 1, sequence (Q96SW2 whole entry partner): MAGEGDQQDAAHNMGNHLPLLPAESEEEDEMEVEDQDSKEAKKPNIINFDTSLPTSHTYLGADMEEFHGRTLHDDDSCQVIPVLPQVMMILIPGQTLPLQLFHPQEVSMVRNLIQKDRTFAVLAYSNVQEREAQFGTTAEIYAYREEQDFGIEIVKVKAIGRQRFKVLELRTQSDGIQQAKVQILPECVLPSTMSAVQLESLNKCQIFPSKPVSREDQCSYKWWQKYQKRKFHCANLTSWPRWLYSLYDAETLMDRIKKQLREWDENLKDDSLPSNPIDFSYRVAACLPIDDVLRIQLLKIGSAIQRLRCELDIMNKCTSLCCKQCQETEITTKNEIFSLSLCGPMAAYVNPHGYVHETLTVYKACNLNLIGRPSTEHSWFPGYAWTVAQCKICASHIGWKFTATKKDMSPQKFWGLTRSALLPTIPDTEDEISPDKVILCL
The subject of data set [4] is PANC-1. Briefly: Induction of cell cycle arrest in human PANC-1 cells assessed as decrease in cyclin D1 level at 2 uM incubated for 24 hrs in presence of JQ1 by […]. It is filed as functional.
The subject of data set [5] is PANC-1. The data set can be described thus: Induction of apoptosis in human PANC-1 cells at 2 uM incubated for 48 hrs by Annexin V-FITC/PI staining based flow cytometry relative to control. It counts as functional.
In data set [6] the test system is PANC-1. Briefly: Induction of apoptosis in human PANC-1 cells assessed as viable cells at 1 uM incubated for 48 hrs in presence of OL by Annexin V-FITC/PI staining based flow cytometry (reference value: 91.64 %). It is filed as functional. The following applies: read-out: Activity.
The nature of data set [7]: Toxicity in BALB/c mouse xenografted with human PANC-1 cells assessed as pathological changes in spleen at 20 mg/kg, ip for 4 weeks administered for 5 days consecutively and 2 days without treatment on every week by H and E staining based analysis. As to conditions: in vivo, 672 h. It is filed as organism-based.
The test system of data set [8] is PANC-1. The data set can be described thus: Induction of cell cycle arrest in human PANC-1 cells assessed as accumulation at G1 phase at 0.25 uM incubated for 24 hrs by PI staining based flow cytometry (reference value: 51.70 %). It counts as functional.
Data set [9] is described as follows: Toxicity in BALB/c mouse xenografted with human PANC-1 cells assessed as pathological changes in lung at 20 mg/kg, ip for 4 weeks administered for 5 days consecutively and 2 days without treatment on every week by H and E staining based analysis. It is filed as organism-based. The following applies: in vivo, 672 h. For orientation: In xenograft studies the graft and the host belong to different species.

A short description of data set [10]: Toxicity in BALB/c mouse xenografted with human PANC-1 cells assessed as body weight loss at 20 mg/kg, ip for 4 weeks administered for 5 days consecutively and 2 days without treatment on every week in presence of OL. It counts as organism-based. As to conditions: in vivo, 672 h.
Data set [11] in a line: Toxicity in BALB/c mouse xenografted with human PANC-1 cells assessed as body weight loss at 20 mg/kg, ip for 4 weeks administered for 5 days consecutively and 2 days without treatment on every week. It is filed as organism-based. As to conditions: in vivo, 672 h.
The test system of data set [12] is PANC-1. The data set can be described thus: Induction of apoptosis in human PANC-1 cells assessed as late apoptotic cells at 1 uM incubated for 48 hrs by Annexin V-FITC/PI staining based flow cytometry (reference value: 3.87 %). It is filed as functional.
In data set [13] the test system is PANC-1. The data set can be described thus: Induction of apoptosis in human PANC-1 cells assessed as early apoptotic cells at 0.12 uM incubated for 48 hrs by Annexin V-FITC/PI staining based flow cytometry (reference value: 1.41 %). It is filed as functional.
The subject of data set [14] is PANC-1. Briefly: Induction of cell cycle arrest in human PANC-1 cells assessed as accumulation at S phase at 0.25 uM incubated for 24 hrs by PI staining based flow cytometry (reference value: 38.94 %). It is filed as functional.
The subject of data set [15] is PANC-1. The data set can be described thus: Inhibition of colony formation in human PANC-1 cells at 1 uM incubated for 14 days by crystal violet staining based analysis. It is filed as functional, cell-based. As to conditions: time 14.0 day.
The test system of data set [16] is PANC-1. The data set can be described thus: Induction of apoptosis in human PANC-1 cells assessed as late apoptotic cells at 0.5 uM incubated for 48 hrs by Annexin V-FITC/PI staining based flow cytometry (reference value: 3.87 %). It is filed as functional.
Data set [17] deals with PANC-1. Briefly: Induction of apoptosis in human PANC-1 cells assessed as viable cells at 0.25 uM incubated for 48 hrs by Annexin V-FITC/PI staining based flow cytometry (reference value: 91.64 %). It is filed as functional. The following applies: read-out: Activity.
Data set [18] relates to PANC-1. Briefly: Induction of apoptosis in human PANC-1 cells assessed as necrotic cells at 0.12 uM incubated for 48 hrs by Annexin V-FITC/PI staining based flow cytometry (reference value: 3.09 %). It is filed as functional.
Data set [19] deals with PANC-1. The data set can be described thus: Induction of cell cycle arrest in human PANC-1 cells assessed as accumulation at G2/M phase at 1 uM incubated for 24 hrs in presence of OL by PI staining based flow cytometry. It counts as functional.

Active and inactive are the calls of the source. The rule behind the calls is not given here.

Consider `O=C1CCC(N2C(=O)c3cccc(NC(=O)CNCCCCCCCCCCC(=O)N4CCN(C(=O)c5cc(Cc6n[nH]c(=O)c7ccccc67)ccc5F)CC4)c3C2=O)C(=O)N1` (stereo not given), for which, in the data set with BXPC-3, the inhibition entry is “Active”. In addition, the Activity with PANC-1 [1] came to 20.5%. Also, the result (with PANC-1 [2]; in data set [3]; in the data set on PANC-1 [4]) was Active.
On to `O=C(c1cc(Cc2n[nH]c(=O)c3ccccc23)ccc1F)N1CCN(C(=O)C2CC2)CC1` [OLAPARIB], for which, in the data set with PANC-1 [5], the Activity stood at 8.1%.
For `Cc1sc2c(c1C)C(c1ccc(Cl)cc1)=N[C@@H](CC(=O)OC(C)(C)C)c1nnc(C)n1-2`, the viability at 1 µM in the data set on PANC-1 [6] amounted to 68.3%. Also, the Activity result in data set [7] was “Non-toxic”; with PANC-1 [8] it was 48.96%; in [9] it was “Non-toxic”; in data set [10] it was “Toxic”; in data set [11] it was “Toxic”; with PANC-1 [12] it was 9.46%. The Activity is given as 2.83% in the data set with PANC-1 [13]; 38.89% with PANC-1 [14]; 10.08% in the data set on PANC-1 [16]; 2.94% in the data set on PANC-1 [18]; “Active; Only A Slight Increase Observed” in the data set on PANC-1 [19]. Besides, the inhibition result in the data set with PANC-1 [15] is “Active”. The viability at 0.25 µM with PANC-1 [17] is 89.4%.

(Values after ChEMBL document CHEMBL6096630, “Enhancing therapeutic efficacy in homologous recombination-proficient pancreatic cancer via the combination of PARP1-PROTAC and a BRD4 inhibitor” (Bioorg Med Chem, 2024).)
